Results on 26 compounds are retold here after US8889696B2, “Substituted pyrido[2,3-d]pyrimidin-7(8H)-ones and therapeutic uses thereof” (Temple University—Of The Commonwealth System Of Higher …, priority 2009, dated 2014).

pIC50: −log10 of the molar value.

Series [1] concerns DU145 (prostate cancer). The experiment in a line: Effect on tumor cell lines (Latham assay), DU145. Format: cell-based. The conditions noted are these: Homo sapiens, DU-145; DU145 cells, examined 96 hours after treatment; read-out: Potencies (IC50) DU 145. The protocol:
(§1) The plated cells were treated 24 hours later with a compound of the invention dissolved in DMSO at multiple concentrations ranging from 0.01 μM to 100 μM. […] When necessary, the total number of viable cells was determined by trypsinizing the wells and counting the number of viable cells, as determined by trypan blue exclusion, using a hemacytometer.

Series [2] has as its system K562 (chronic myelogenous leukemia). The experiment in a line: Effect on tumor cell lines (Latham assay), K562. Format: cell-based. The conditions noted are these: Homo sapiens; K562 cells, examined 96 hours after treatment; read-out: Potencies (IC50) K 562. The method, then: as §1

What is called pIC50 is the negative decadic logarithm of the IC50, by convention in mol/L. As a reminder, the melting point is the temperature, or range, at which the solid turns liquid. Turning to `Cn1c(=O)c(S(=O)(=O)c2ccc(Cl)cc2)cc2cnc(NCCCN3CCOCC3)nc21` [Example 7, 2-(3-morpholinopropylamino)-6-(4-chlorophenylsulfonyl)-8-methylpyrido[2,3-d]pyrimidin-7(8H)-one], the melting point was 160 to 164 °C. In series [1], the pIC50 is 4.30 to 4.60. Besides, the pIC50 in series [2] is 4.30 to 4.60.

As to `CN1CCN(CCNc2ncc3cc(S(=O)(=O)c4ccc(Cl)cc4)c(=O)n(C)c3n2)CC1` [Example 9, 2-(2-(4-methylpiperazin-1-yl)ethylamino)-6-(4-chlorophenylsulfonyl)-8-methylpyrido[2,3-d]pyrimidin-7(8H)-one], the melting point fell in the range of 176 to 180 °C. For the same compound, the pIC50 in series [1] was 4.30 to 4.60. In addition, the pIC50 in series [2] was 4.60 to 5.00.

`COc1ccc(S(=O)(=O)c2cc3cnc(Nc4cccc5[nH]ccc45)nc3n(C)c2=O)cc1` [Example 30, 2-(1H-indol-4-ylamino)-6-(4-methoxyphenylsulfonyl)-8-methylpyrido[2,3-d]pyrimidin-7(8H)-one]: the melting point fell in the range of 289 to 292 °C. Moreover, in series [1], the pIC50 was 5.00 to 6.00. For the same compound, in series [2], the pIC50 is 5.00 to 6.00.

`CCn1c(=O)c(S(=O)(=O)c2ccccc2)cc2cnc(Nc3ccc4[nH]ccc4c3)nc21` [Example 54, 2-(1H-indol-5-ylamino)-8-ethyl-6-(phenylsulfonyl)pyrido[2,3-d]pyrimidin-7(8H)-one] gave a melting point greater than 400 °C. The pIC50 in series [1] was 5.00 to 6.00. Also, the pIC50 in series [2] was greater than 6.00.

As for `O=c1c(S(=O)(=O)c2ccccc2)cc2cnc(Nc3ccc(N4CCOCC4)cc3)nc2n1C1CCCC1` [Example 63, 2-(4-morpholinophenylamino)-8-cyclopentyl-6-(phenylsulfonyl)pyrido[2,3-d]pyrimidin-7(8H)-one], the melting point lay in the range of 221 to 222 °C. For the same compound, the pIC50 in series [1] was 4.60 to 5.00. In addition, in series [2], the pIC50 was 4.60 to 5.00.

For `Cn1c(=O)c(S(=O)(=O)c2ccc(Cl)cc2)cc2cnc(Nc3cnc4ccccc4c3)nc21` [Example 5, 6-(4-chlorophenylsulfonyl)-8-methyl-2-(quinolin-3-ylamino)pyrido[2,3-d]pyrimidin-7(8H)-one], the melting point was in the range of 304 to 306 °C. The pIC50 in series [1] is 4.60 to 5.00. The pIC50 in series [2] was 4.60 to 5.00.

`O=c1c(S(=O)(=O)c2ccccc2)cc2cnc(Nc3ccc4[nH]ccc4c3)nc2n1C1CCCC1` [Example 55, 2-(1H-indol-5-ylamino)-8-cyclopentyl-6-(phenylsulfonyl)pyrido[2,3-d]pyrimidin-7(8H)-one] gave a melting point of 272 to 273 °C. For the same compound, the negative-log IC50 (pIC50) in series [1] was 5.00 to 6.00. Further, in series [2], the pIC50 was 5.00 to 6.00.

`Cn1c(=O)c(S(=O)(=O)c2ccc(F)cc2)cc2cnc(Nc3ccc4[nH]ncc4c3)nc21` [Example 13, 2-(1H-indazol-5-ylamino)-6-(4-fluorophenylsulfonyl)-8-methylpyrido[2,3-d]pyrimidin-7(8H)-one] came in with a melting point of 160 to 165 °C. For the same compound, the pIC50 in series [1] was 5.00 to 6.00. In series [2], the pIC50 is 5.00 to 6.00.

For the compound `Cn1c(=O)c(S(=O)(=O)c2ccccc2)cc2cnc(Nc3ccc4cc[nH]c4c3)nc21` [Example 25, 2-(1H-indol-6-ylamino)-8-methyl-6-(phenylsulfonyl)pyrido[2,3-d]pyrimidin-7(8H)-one], the melting point is greater than 350 °C. Besides, the pIC50 in series [1] is 4.30 to 4.60. Further, in series [2], the pIC50 is 4.30 to 4.60.

Take `Cn1c(=O)c(S(=O)(=O)c2ccc(F)c(Cl)c2)cc2cnc(Nc3ccc4[nH]ccc4c3)nc21` [Example 33, 2-(1H-indol-5-ylamino)-6-(3-chloro-4-fluorophenylsulfonyl)-8-methylpyrido[2,3-d]pyrimidin-7(8H)-one]: the melting point fell in the range of 250 to 255 °C. Moreover, in series [1], the pIC50 was 5.00 to 6.00. Also, the negative logarithm of the IC50 (pIC50) in series [2] was greater than 6.00.

As to `CCCn1c(=O)c(S(=O)(=O)c2ccccc2)cc2cnc(Nc3ccc4cc[nH]c4c3)nc21` [Example 44, 2-(1H-indol-6-ylamino)-6-(phenylsulfonyl)-8-propylpyrido[2,3-d]pyrimidin-7(8H)-one], the melting point was in the range of 272 to 273 °C. For the same compound, in series [1], the pIC50 was 5.00 to 6.00. Besides, the pIC50 in series [2] was 5.00 to 6.00.

For `Cn1c(=O)c(S(=O)(=O)c2ccc(F)c(Cl)c2)cc2cnc(Nc3cnc4[nH]ccc4c3)nc21` [Example 35, 2-(1H-pyrrolo[2,3-b]pyridin-5-ylamino)-6-(3-chloro-4-fluorophenylsulfonyl)-8-methylpyrido[2,3-d]pyrimidin-7(8H)-one], the melting point fell in the range of 320 to 325 °C. In series [1], the pIC50 is greater than 6.00. Moreover, the pIC50 in series [2] is greater than 6.00.

In the case of `Cn1c(=O)c(S(=O)(=O)c2ccc(F)cc2)cc2cnc(Nc3ccc4[nH]ccc4c3)nc21` [Example 11], the melting point is 278 to 282 °C. In addition, the pIC50 in series [1] was greater than 6.00. For the same compound, the pIC50 in series [2] was greater than 6.00.

Compound `CCCn1c(=O)c(S(=O)(=O)c2ccccc2)cc2cnc(SC)nc21` [Example 48, 2-(methylsulfanyl)-6-(phenylsulfonyl)-8-propylpyrido[2,3-d]pyrimidin-7(8H)-one] returned a melting point of 231 to 232 °C. Also, the pIC50 in series [1] was less than 4.00. For the same compound, in series [2], the negative logarithm of the IC50 (pIC50) was 4.00 to 4.30.

Compound `O=c1c(S(=O)(=O)c2ccc(Cl)cc2)cc2cnc(Nc3ccc(N4CCOCC4)cc3)nc2n1C1CCCCC1` [Example 52, 6-(4-chlorophenylsulfonyl)-2-(4-morpholinophenylamino)-8-cyclohexylpyrido[2,3-d]pyrimidin-7(8H)-one] showed a melting point of 329 to 331 °C. Besides, the pIC50 in series [1] is 4.60 to 5.00. Moreover, the pIC50 in series [2] is 5.00 to 6.00.

For the compound `Cn1c(=O)c(S(=O)(=O)c2ccc(Cl)cc2)cc2cnc(Nc3ccc4[nH]ccc4c3)nc21` [Example 6, 2-(1H-indol-5-ylamino)-6-(4-chlorophenylsulfonyl)-8-methylpyrido[2,3-d]pyrimidin-7(8H)-one], the melting point lay in the range of 316 to 320 °C. Moreover, in series [1], the pIC50 was greater than 6.00. For the same compound, in series [2], the pIC50 is greater than 6.00.

`Cn1c(=O)c(S(=O)(=O)c2ccc(F)cc2)cc2cnc(Nc3cccc4[nH]ccc34)nc21` [Example 10, 2-(1H-indol-4-ylamino)-6-(4-fluorophenylsulfonyl)-8-methylpyrido[2,3-d]pyrimidin-7(8H)-one]: the melting point was greater than 350 °C. For the same compound, the pIC50 in series [1] was greater than 6.00. The negative logarithm of the IC50 (pIC50) in series [2] was greater than 6.00.

For `Cn1c(=O)c(S(=O)(=O)c2ccc(Cl)cc2)cc2cnc(Nc3cccc4[nH]ccc34)nc21` [Example 31, 2-(1H-indol-4-ylamino)-6-(4-chlorophenylsulfonyl)-8-methylpyrido[2,3-d]pyrimidin-7(8H)-one], the melting point was 320 to 324 °C. The pIC50 in series [1] is 5.00 to 6.00. The pIC50 in series [2] was 5.00 to 6.00.

Take `COc1ccc(S(=O)(=O)c2cc3cnc(Nc4ccc5[nH]ccc5c4)nc3n(C)c2=O)cc1` [Example 29, 2-(1H-indol-5-ylamino)-6-(4-methoxyphenylsulfonyl)-8-methylpyrido[2,3-d]pyrimidin-7(8H)-one]: the melting point is 260 to 262 °C. In addition, the pIC50 in series [1] is greater than 6.00. In addition, the pIC50 in series [2] is greater than 6.00.

`Cn1c(=O)c(S(=O)(=O)c2ccc(F)cc2)cc2cnc(Nc3ccc4cc[nH]c4c3)nc21` [Example 24, 2-(1H-indol-6-ylamino)-6-(4-fluorophenylsulfonyl)-8-methylpyrido[2,3-d]pyrimidin-7(8H)-one]: the melting point was greater than 350 °C. In addition, the pIC50 in series [1] is 4.30 to 4.60. Further, the pIC50 in series [2] is 4.30 to 4.60.

With `Cc1ccc(S(=O)(=O)c2cc3cnc(Nc4ccc5ncccc5c4)nc3n(C)c2=O)cc1` [Example 15, 8-methyl-2-(quinolin-6-ylamino)-6-tosylpyrido[2,3-]pyrimidin-7(8H)-one], the melting point fell in the range of 325 to 330 °C. The pIC50 in series [1] is 4.60 to 5.00. In addition, in series [2], the pIC50 was 4.60 to 5.00.

Take `Cn1c(=O)c(S(=O)(=O)c2ccccc2)cc2cnc(Nc3ccc4[nH]ccc4c3)nc21` [Example 21, 2-(1H-indol-5-ylamino)-8-methyl-6-(phenylsulfonyl)pyrido[2,3-d]pyrimidin-7(8H)-one]: the melting point was in the range of 340 to 344 °C. Also, the pIC50 in series [1] was 5.00 to 6.00. The negative-log IC50 (pIC50) in series [2] was greater than 6.00.

Compound `O=c1c(S(=O)(=O)c2ccc(Cl)cc2)cc2cnc(Nc3cccc4[nH]ccc34)nc2n1C1CCCCC1` [Example 53, 2-(1H-indol-4-ylamino)-6-(4-chlorophenylsulfonyl)-8-cyclohexylpyrido[2,3-d]pyrimidin-7(8H)-one] displayed a melting point of 300 to 302 °C. Besides, the pIC50 in series [1] was less than 4.00. Further, the pIC50 in series [2] is 4.60 to 5.00.

Regarding `COC(=O)c1ccc(S(=O)(=O)c2cc3cnc(Nc4ccc5[nH]ccc5c4)nc3n(C)c2=O)cc1` [Example 26, methyl 4-(2-(1H-indol-5-ylamino)-7,8-dihydro-8-methyl-7-oxopyrido[2,3-d]pyrimidin-6-ylsulfonyl)benzoate], the melting point was 305 to 310 °C. The pIC50 in series [1] was 5.00 to 6.00. Moreover, in series [2], the pIC50 was 5.00 to 6.00.

`Cc1ccc(S(=O)(=O)c2cc3cnc(Nc4ccc5[nH]ccc5c4)nc3n(C)c2=O)cc1` [Example 17, 2-(1H-indol-5-ylamino)-8-methyl-6-tosylpyrido[2,3-d]pyrimidin-7(8H)-one] had a melting point of 310 to 314 °C. Further, in series [1], the pIC50 was greater than 6.00. In addition, the pIC50 in series [2] is greater than 6.00.

Compound `Cn1c(=O)c(S(=O)(=O)c2ccc(Cl)cc2)cc2cnc(Nc3ccc(Cl)cc3)nc21` [Example 3, 2-(4-chlorophenylamino)-6-(4-chlorophenylsulfonyl)-8-methylpyrido[2,3-d]pyrimidin-7(8H)-one] registered a melting point greater than 300 °C. For the same compound, in series [1], the pIC50 is 4.60 to 5.00. Besides, the pIC50 in series [2] is 4.60 to 5.00.
